According to patent publication US10376487B2, “Method of treatment” (Vanda Pharmaceuticals, Inc., priority 2013, dated 2019):
Read-outs that look alike come from different tables or passages of the source.

Assay: Clinical food-effect study: pharmacokinetics of a 100 mg tasimelteon capsule with or without a high-fat/high-calorie meal
Type: in vivo, human
Conditions: for Cmax / Tmax: human, in vivo, po
Protocol: A clinical study was undertaken to investigate the effects of food on administration of tasimelteon. Specifically, the primary objective of the study was to investigate the influence of food (high-calorie/high-fat) on the pharmacokinetics of 100 mg of tasimelteon in healthy subjects. This was a single-center, open-label, crossover design which lasted up to 5 weeks. 26 Healthy male and female subjects (18-50 years old) were enrolled in the study. There was a 2-period, randomized, 2-sequence crossover design where each subject received 100 mg tasimelteon either with or without food. Subjects were randomly assigned to receive a 100 mg tasimelteon capsule under fasted conditions or a 100 mg tasimelteon capsule under fed conditions (i.e., 30 minutes after beginning to ingest a high-fat meal). There was a 7-day washout between treatment groups. FIG. 1 depicts an example of the overall study design. In FIG. 1, tasimelteon is referred to as VEC-162.
For purposes of the study depicted in FIG. 1, administration under fasted conditions was administration with 240 mL of water at approximately 6:00 AM, after at least a 10-hour fast. Subjects were not allowed to eat any food for at least 4 hours postdose. Subjects were allowed to drink water as desired except 1 hour before and 2 hours after drug administration.
Administration under fed conditions was administration with 240 mL of water at approximately 6:00 AM, after a high-fat/high=calorie breakfast, which included one cup of milk. Subjects began the recommended meal 30 minutes prior to drug administration. Subjects finished eating the meal in 30 minutes or less and the drug was administered approximately 30 minutes after the start of the meal. Subjects were not allowed to eat any food for at least 4 hours postdose. Subjects were allowed to drink water as desired except 1 hour before and 2 hours after drug administration.
25 Subjects completed both periods of the study.

[1] = fed vs fasted, 100 mg oral, 90% CI within 80% to 125%
[2] = with a high-fat/high calorie meal vs fasted

With `CCC(=O)NC[C@@H]1C[C@H]1c1cccc2c1CCO2` [tasimelteon] the “Cmax lower than when given in a fasted state” value (administered with a high-fat meal, illustrative prescribing information language) was 44%, the Cmax (both sexes, 100 mg, healthy subjects, 100 mg oral capsule, fasted conditions) was 786 ng/mL and the Cmax (both sexes, 100 mg, healthy subjects, 100 mg oral capsule, fed conditions (high-fat/high-calorie meal)) was 445 ng/mL. For the same molecule, the Tmax (both sexes, 100 mg, healthy subjects, 100 mg oral capsule, fed conditions (high-fat/high-calorie meal), read-out: median Tmax) was 2.5 h, the “AUC(0-t) geometric mean ratio” value [1] was 108.57% and the “AUC(Inf) geometric mean ratio” value [1] was 106.54%. The “Cmax geometric mean ratio” value (fed vs fasted, 100 mg oral, 90% confidence interval 49.72% to 62.67%) was 55.82%, the Tmax (after fasted oral administration, illustrative prescribing information language, read-out: peak concentration (Tmax)) was 0.5 to 3 h and the extent of absorption [2] was “no significant change”. The rate of absorption [2] was “significant decrease”.
